According to patent US12422427B2, “Compounds for treatment of diseases and methods of screening therefor” (Max-Planck-Gesellschaft zur Förderung der Wissenschaften …, priority 2018, dated 2025):
One block for each molecule: values may come before it.

Tests used:
HeLa cells = test: 15N lipoamide uptake by HeLa cells measured by NMR; format: in vitro ADME; settings: for uptake of the lipoamide present in the medium: 100 μM, 1 h, 37° C., stressed or unstressed HeLa cells
Procedure: The concentration of lipoamide relative to protein required for an effect on condensate liquidity in vitro was higher than the EC50 on cells, on the order of 100 μM lipoamide with 1 μM FUS (FIGS. 1D-1E, FIGS. 5A-5E). In cells, FUS concentrations are high for a protein (low μM)^41 and the cellular EC50 was on the order of 10 μM (FIG. 2A, FIG. 3D). We also saw inverse effects of lipoamide on FUS-containing condensates in vitro (more, larger condensates) and in cells (fewer stress granules). To reconcile this difference and to understand the relevance of the effects in vitro in cells, we wanted to know the actual concentrations of compounds in cells. In principle, isotopic labelling allows direct monitoring of isotopically-labelled compounds even in complex environment through appropriate spectroscopy. To use this approach, ^15N-labelled lipoamide (FIG. 7A) was synthesised.
Uptake of ^15N lipoamide by cells from the medium was quantified by NMR following incubation of lipoamide at 37° C. for 1 h either in the absence or presence of HeLa cells (FIG. 7B). Cellular uptake was determined by calculating the difference between medium incubated with cells or without cells for combinations of either R-(+) or (±)-lipoamide and either unstressed or stressed cells (FIG. 7C). For one sample, stressed cells with R-(+)-lipoamide, we confirmed that strong signal from the cell fraction was consistent with uptake of a large proportion of lipoamide (FIG. 7C). Both R-(+) and ±-lipoamide measurements indicated uptake of 35±11% (n=3 and 2, respectively) of the lipoamide present in the medium. No significant difference was observed either for uptake of R-(+) compared to (±)-lipoamide or stressed compared to unstressed cells (FIG. 7D).
For analysis of ^15N lipoamide uptake by cells HeLa cells expressing FUS GFP were grown in 6 well plates to 10^6 cells/well in DMEM supplemented with 10% FCS. To simultaneously stress and treat cells, the medium was replaced with 0.6 ml medium supplemented with potassium arsenate and 100 μM ^15N racemic or R-(+)-lipoamide for 1 h at 37° C. High concentrations of compound were used to maximise the signal. […] Wells were prepared for all combinations of no compound (1% DMSO control), ^15N […] or ^15N R-(+)-lipoamide, with or without potassium arsenate and with or without cells. ^1H detected ^15N edited ^1H sensitivity enhanced HSQ was used to quantify ^15N lipoamide concentration (see Supplementary Information). Solvent, pH and temperature sensitivity of the primary amide proton chemical shifts were determined using dummy samples assembled from the appropriate solvent and added compounds.
^1H detected ^15N edited ^1H sensitivity enhanced HSQC NMR (referred to here as (^15N) ^1H) spectra were acquired on a narrow bore Varian solution state spectrometer operating with a fixed field strength of 14.1 T, equipped with a room-temperature probe.
The free induction decay was recorded for an acquisition time of 0.0624 and a sweep with of 8 kHz recorded over 1000 and a recovery delays of 1 s. […] The J coupling between the amide protons and the ^15N in H2O samples was determined to be 96 Hz, and so the transfer times of 1/4 J in the INEPT portions of the pulse sequence were set to 2.6 ms. […]

[1] = tested on: FUS GFP localisation in stressed HeLa cells; test: Ex vivo HeLa cell screen of FUS GFP localisation under arsenate stress; format: cell-based; settings: 10 μM compound 1 h pre-treatment, then 1 h 1 mM potassium arsenate
Source text: The inventors developed a cell-based screen using a HeLa cell line that stably expresses GFP-tagged FUS at near-endogenous levels. While not required for stress granule formation, FUS is a well-characterised protein with a domain structure typical of stress granule proteins. In the absence of cellular stress, FUS-GFP primarily localizes to the nucleus, where it is partially excluded from the nucleolus and localises to small puncta called paraspeckles (FIG. 1A). These are nuclear droplets implicated in retaining RNA in the nucleus for rapid stress response. Cells were pre-treated with 10 μM compound from a compound library for 1 h, then the cells were stressed with 1 mM potassium arsenate (still in the presence of compound) (FIG. 1B) and monitored FUS localization to stress granules. Arsenate disrupts antioxidant responses by reacting with thiol groups, blocks the tricarboxylic acid (TCA) cycle by reacting with the thiols in vital lipoyl moieties and causes general oxidative damage. In untreated stressed cells, FUS is partly exported to the cytoplasm where, in combination with other proteins and mRNA, it phase separates to form liquid-like stress granules surrounded by cytoplasm depleted in FUS (FIG. 1A).
Many compounds affected stress granule formation. Multi-parameter image analysis, including cytoplasmic puncta number, nuclear puncta number, and nuclear/cytoplasm partition, was used to rank compounds by strength of effect on FUS localisation in stressed cells (FIG. 1C). […] These were the polysome stabilising compound emetine, which prevents release of mRNA, and the heavy metal chelating compound dimercaprol (which should sequester the stressor). Edaravone, thought to be an antioxidant and used as an ALS therapeutic in Japan and the US, had no effect on FUS localization in arsenate-stressed cells.
The effect of compounds on FUS GFP localisation in stressed HeLa cells was screened in 384 well format. 4000 cells were seeded per well and incubated for 24 h, after which the medium was replaced with 40 μl fresh medium and compound added to a final concentration of 10 μM by acoustic dispensing (Labcyte Echo 550). The final concentration of DMSO in all samples was 0.1%. […]
For the initial screen FUS GFP signal was analysed using KNIME. […] Particle number and sum area, granularity at 9, 10 & 11 px (cytoplasm) or 1, 5, 6, 7, 8 & 9 px (nucleus) scale, texture at 10 px scale and integrated signal intensity were measured for the nucleus and cytoplasm in the green (FUS GFP) channel. Z scores (z=(x−μ)/σ where x is the observed value, μ the control mean and σ the control standard deviation) relative to the DMSO treated control wells on each plate were calculated for each of the parameters, and combined into the Mahalanobis distance.

[2] = tested on: HeLa cells expressing FUS GFP; test: HeLa cell compound dose responses (FUS GFP, arsenate stress); format: cell-based
Procedure: Small dilution steps rather than concentration replicates were selected as it provides greater statistical power from a set number of samples. Final DMSO concentration was 0.08% in all samples, and each plate included at least 12 control wells with 0.08% DMSO. Cytoplasmic FUS droplet number and nuclear/cytoplasm partition of FUS were analysed using custom macros in ImageJ. Nuclei were identified by intensity thresholding of the blue fluorescence image following a 5 px Gaussian blur. Cytoplasmic FUS droplets by intensity thresholding of the green image following a 10 px weight 0.9 unsharp filter masked by the thresholded nuclei, and nuclear FUS droplets by intensity thresholding of the green image following a 5 px weight 0.9 unsharp filter and 10 px rolling ball background subtraction masked to only include thresholded nuclei. The ratio of cytoplasmic FUS drops to nuclei was taken as cytoplasmic FUS droplets per cell per field of view, and p, the ratio of partition of FUS to the nucleus and the cytoplasm, was derived from a=Vn/vt, the ratio of nuclear to total green signal per field of view, where p=a/(1−a). […] Six fields of view were captured and analysed per condition.

average intracellular concentration (HeLa cells; calculated from percentage uptake, number of cells and their volume): 5.0 ± 1.6 mM
Structure (SMILES): NC(=O)CCCCC1CCSS1 (stereo not drawn) [^15N lipoamide]

Structure (SMILES): CC1=CC(=O)c2ccccc2C1=O [menadione]
effect on stress granules / FUS localisation in stressed cells [1]: did not reduce stress granule number

Structure (SMILES): OCC(S)CS (stereo not drawn) [dimercaprol]
effect on stress granules / FUS localisation in stressed cells [1]: reduction of stress granules

uptake of the lipoamide present in the medium (HeLa cells): 35±11%
Structure (SMILES): [15NH2]C(=O)CCCC[C@@H]1CCSS1 [R-(+)-lipoamide, ^15N R-(+)-Lipoamide]

Structure (SMILES): SCCCS [1,3-propanedithol, 1,3-propanedithiol, reference compound]
effect on stress granule number ([2]; up to 100 μM): no effect

uptake of the lipoamide present in the medium (HeLa cells): 35±11%
Structure (SMILES): [15NH2]C(=O)CCCCC1CCSS1 (racemic) [±-lipoamide, ^15N (±)-Lipoamide]

EC50 reducing stress granule number, compared among compounds ([2]; 1 h 1 mM arsenate stress): comparable EC50
Structure (SMILES): O=C(O)CCCCC(S)CCS (racemic) [(±)-dihydrolipoic acid, 6,8-dimercaptooctanoic acid]

Structure (SMILES): CC[C@H]1CN2CCc3cc(OC)c(OC)cc3[C@@H]2C[C@@H]1C[C@H]1NCCc2cc(OC)c(OC)cc21 [emetine]
effect on stress granules / FUS localisation in stressed cells [1]: reduction of stress granules

Structure (SMILES): CC1=NN(c2ccccc2)C(=O)C1 [Edaravone]
effect on stress granules / FUS localisation in stressed cells [1]: no effect
